Common to all, as to assay: Effect on cell growth in the presence of androgen (cell count)
Format in all cases: cell-based

One test deals with LNCaP-FGC cells. The following applies: 0.01 to 10 ng/mL testosterone, cells counted 3 days after addition, FIG. 1. The protocol: (§1) (Method) LNCaP-hr (cultured for 60 weeks in culture broth free of androgen) and LNCaP-FGC cells were plated on a 24 well plate at 40000 cells/mL/well, 0.01 to 10 ng/mL of testosterone was added the next day, and the cells were counted 3 days after the addition. In addition, MDA PCa 2b-hr (cultured for 61 weeks in culture broth free of androgen) and MDA PCa 2b cells were plated on a 24 well plate at 40000 cells/mL/well, 0.1 to 100 ng/mL of testosterone was added the next day, and the cells were counted 4 days after the addition. (Results) The growth of LNCaP-FGC and MDA PCa 2b was promoted by testosterone [FIGS. 1 and 2]. In contrast, the growth of LNCaP-hr and MDA PCa 2b-hr cells were suppressed by testosterone [FIGS. 1 and 2].

The subject of another test is MDA PCa 2b cells. The following applies: 0.1 to 100 ng/mL testosterone, cells counted 4 days after addition, FIG. 2. The protocol: as §1
For test [1], the system named is LNCaP-hr cells (highly androgen sensitive cell line). The following applies: LNCaP-hr (cultured 60 weeks in androgen-free broth), 0.01 to 10 ng/mL testosterone, cells counted 3 days after addition, FIG. 1.
Test [2] relates to MDA PCa 2b-hr cells (highly androgen sensitive cell line). The following applies: MDA PCa 2b-hr (cultured 61 weeks in androgen-free broth), 0.1 to 100 ng/mL testosterone, cells counted 4 days after addition, FIG. 2.

Regarding `C[C@]12CC[C@H]3[C@@H](CCC4=CC(=O)CC[C@@]43C)[C@@H]1CC[C@@H]2O` [testosterone], the cell growth entry in the test with LNCaP-FGC cells was “promoted”; in the test on MDA PCa 2b cells, “promoted”; in test [1] it was “suppressed”; in test [2] it was “suppressed”.

The record behind these values is patent US8518890B2, “Remedies for sex hormone dependent disease” (Takeda Pharmaceutical Company Limited, priority 2002, dated 2013).
